Assay results taken from patent publication US20170339955A1, “Substituted N-(tetrazol-5-yl)- and N-(triazol-5-yl)arylcarboxamide compounds and their use as herbicides” (BASF SE, priority 2012, published 2017).

Tests used:
Format in all cases: in vivo
[1] = system: Abutilon theophrasti (velvetleaf); experiment: Greenhouse post-emergence treatment of Abutilon theophrasti (velvetleaf); conditions: application rate 1000 g/ha, scale 0 (no damage) to 100 (complete destruction)
Source text: (§1) The culture containers used were plastic flowerpots containing loamy sand with approximately 3.0% of humus as the substrate. The seeds of the test plants were sown separately for each species.
(§2) For the post-emergence treatment, the test plants were first grown to a height of 3 to 15 cm, depending on the plant habit, and only then treated with the active ingredients which had been suspended or emulsified in water. For this purpose, the test plants were either sown directly and grown in the same containers, or they were first grown separately as seedlings and transplanted into the test containers a few days prior to treatment.
(§3) Depending on the species, the plants were kept at 10-25° C. or 20-35° C. The test period extended over 2 to 4 weeks. During this time, the plants were tended, and their response to the individual treatments was evaluated.
(§4) Evaluation was carried out using a scale from 0 to 100. 100 means no emergence of the plants, or complete destruction of at least the aerial moieties, and 0 means no damage, or normal course of growth. A good herbicidal activity is given at values of at least 70 and a very good herbicidal activity is given at values of at least 85.

[2] = system: Amaranthus retroflexus L. (pigweed); experiment: Greenhouse pre-emergence treatment of Amaranthus retroflexus L. (pigweed); conditions: application rate 1000 g/ha, scale 0 (no damage) to 100 (no emergence/complete destruction)
Source text: as §1
(§5) For the pre-emergence treatment, the active ingredients, which had been suspended or emulsified in water, were applied directly after sowing by means of finely distributing nozzles. The containers were irrigated gently to promote germination and growth and subsequently covered with transparent plastic hoods until the plants had rooted. This cover caused uniform germination of the test plants, unless this has been impaired by the active ingredients.
as §3, §4

[3] = system: Amaranthus retroflexus L. (pigweed); experiment: Greenhouse post-emergence treatment of Amaranthus retroflexus L. (pigweed); conditions: application rate 1000 g/ha, scale 0 (no damage) to 100 (complete destruction)
Source text: as §1, §2, §3, §4

[4] = system: Echinochloa crus-galli (barnyard grass); experiment: Greenhouse post-emergence treatment of Echinochloa crus-galli (barnyard grass); conditions: application rate 1000 g/ha, scale 0 (no damage) to 100 (complete destruction)
Source text: as §1, §2, §3, §4

[5] = system: Abutilon theophrasti (velvetleaf); experiment: Greenhouse pre-emergence treatment of Abutilon theophrasti (velvetleaf); conditions: application rate 1000 g/ha, scale 0 (no damage) to 100 (no emergence/complete destruction)
Source text: as §1, §5, §3, §4

Row | Compound | damage [%] [1] [%] | damage [%] [2] [%] | damage [%] [3] [%] | damage [%] [4] [%] | damage [%] [5] [%]
1 | Cn1ncnc1NC(=O)c1c(F)cc(Cl)cc1Cl [I.A-1] | 100 | 80 | 100 |  | 
2 | Cn1ncnc1NC(=O)c1cc(F)c(Cl)cc1Cl [I.A-5] | 75 |  | 85 | 90 | 
3 | Cn1ncnc1NC(=O)c1c(F)cc(Cl)c(S(C)(=O)=O)c1Cl [I.A-41, 2,4-dichloro-6-fluoro-3-methylsulfonyl-n-(2-methyl-1,2,4-triazol-3-yl)benzamide] | 100 |  | 100 |  | 95
4 | Cn1ncnc1NC(=O)c1c(F)ccc(Cl)c1Cl [I.A-1441] | 75 | 100 | 100 |  | 
5 | Cn1nnnc1NC(=O)c1cc(F)c(Cl)cc1Cl [V.A-5] | 100 | 100 | 100 |  | 
6 | CSc1c(Cl)cc(F)c(C(=O)Nc2nnnn2C)c1Cl [V.A-1442, 2,4-dichloro-6-fluoro-3-methylsulfanyl-n-(1-methyltetrazol-5-yl)benzamide] | 100 |  | 100 |  | 100
7 | Cn1nnnc1NC(=O)c1c(F)cc(Cl)c(S(C)(=O)=O)c1Cl [V.A.-41, 2,4-dichloro-6-fluoro-3-methylsulfonyl-n-(1-methyltetrazol-5-yl)benzamide] | 100 | 100 | 100 |  | 
